Results taken from ChEMBL document CHEMBL5321282, “Design, Synthesis, and Biological Evaluation of Esculetin-Furoxan-DEAC Ternary Hybrids for Anti-Triple Negative Breast Cancer” (J Med Chem, 2023).
Calls of active or inactive are those of the source. The rule behind the calls is not given here.

Columns and labels:
MDA-MB-231 [1] = assay: Antiproliferative activity against human MDA-MB-231 cells assessed as inhibition of cell growth measured after 48 hrs by MTT assay; assay type: functional, cell-based; settings: MDA-MB-231, 48 h
A549 = assay: Antiproliferative activity against human A549 cells assessed as inhibition of cell growth measured after 48 hrs by MTT assay; assay type: functional, cell-based; settings: A549, 48 h
HCT-116 = assay: Antiproliferative activity against human HCT-116 cells assessed as inhibition of cell growth measured after 48 hrs by MTT assay; assay type: functional, cell-based; settings: HCT-116, 48 h
MCF7 = assay: Antiproliferative activity against human MCF7 cells assessed as inhibition of cell growth measured after 48 hrs by MTT assay; assay type: functional, cell-based; settings: MCF7, 48 h
[2] = Cytotoxicity against human L02 cells assessed as inhibition in cell growth measured after 48 hrs by MTT assay; assay type: toxicity, cell-based
[3] = Cytotoxicity against human MCF-10A cells assessed as inhibition in cell growth measured after 48 hrs by MTT assay; assay type: toxicity, cell-based
[4] = Selectivity index, ratio of IC50 for cytotoxicity against human L02 cells to IC50 for antiproliferative activity against human MDA-MB-231 cells; assay type: toxicity, cell-based; settings: L02 cells versus MDA-MB-231 cells, read-out: Ratio IC50
[5] = Selectivity index, ratio of IC50 for cytotoxicity against human MCF-10A cells to IC50 for antiproliferative activity against human MDA-MB-231 cells; assay type: toxicity, cell-based; settings: MCF-10A cells versus MDA-MB-231 cells, read-out: Ratio IC50
MDA-MB-231 [6] = assay: Antiproliferative activity against human MDA-MB-231 cells assessed as effect on NO level at 25 uM incubated for 2 hrs; assay type: functional, cell-based
MDA-MB-231 [7] = assay: Antiproliferative activity against human MDA-MB-231 cells assessed as inhibition of cell growth measured after 48 hrs in presence of 3,4-bis(phenylsulfonyl)-1,2,5-oxadiazole 2-oxide by MTT assay; assay type: functional, cell-based; settings: MDA-MB-231, 48 h
MDA-MB-231 [8] = assay: Antiproliferative activity against human MDA-MB-231 cells assessed as inhibition of cell growth measured after 48 hrs in presence of 7-(diethylamino)-2-oxo-2H-chromene-3-carboxylic acid by MTT assay; assay type: functional, cell-based; settings: MDA-MB-231, 48 h
[9] = Toxicity in BALB/C mouse xenografted with human MDA-MB-231 cells assessed as change in body weight at 2.5 mg/kg, ip administered every 2 days measured after 3 weeks; assay type: organism-based; settings: in vivo, 504 h
MDA-MB-231 [10] = assay: Induction of apoptosis in human MDA-MB-231 cells assessed as increase in CypD level incubated for 8 hrs by Western blotting analysis; assay type: functional, cell-based; settings: dose 5-20 nM
MDA-MB-231 [11] = assay: Induction of apoptosis in human MDA-MB-231 cells assessed as effect on ANT level at 20 nM incubated for 8 hrs by Western blotting analysis; assay type: functional, cell-based

| IC50 (MDA-MB-231 [1]) [nM] | IC50 (A549) [nM] | IC50 (HCT-116) [nM] | IC50 (MCF7) [nM] | Structure (SMILES) | also measured |
| --- | --- | --- | --- | --- | --- |
| 53 | 2260 | 3260 | 1060 | CCN(CC)c1ccc2cc(C(=O)OCCCOc3cc4ccc(=O)oc4cc3OCCCCCCOc3no[n+]([O-])c3S(=O)(=O)c3ccccc3)c(=O)oc2c1 |  |
| 148 | 3050 | 2410 | 10400 | O=c1ccc2cc(OCCCCCCOc3no[n+]([O-])c3S(=O)(=O)c3ccccc3)c(OCCCCCCOc3no[n+]([O-])c3S(=O)(=O)c3ccccc3)cc2o1 |  |
| 42 | 1210 | 2030 | 3700 | O=c1ccc2cc(OCCCCOc3no[n+]([O-])c3S(=O)(=O)c3ccccc3)c(OCCCCOc3no[n+]([O-])c3S(=O)(=O)c3ccccc3)cc2o1 | IC50 at 48 h [2]: 5640 nM; IC50 at 48 h [3]: 6440 nM; selectivity ratio [4]: 134; selectivity ratio [5]: 153; Activity (MDA-MB-231 [6]): Active |
| 100 | 2820 | 3100 | 2120 | O=c1ccc2cc(OCCCCCOc3no[n+]([O-])c3S(=O)(=O)c3ccccc3)c(OCCCCCOc3no[n+]([O-])c3S(=O)(=O)c3ccccc3)cc2o1 |  |
| 58 | 1960 | 1120 | 2330 | O=c1ccc2cc(OCCCOc3no[n+]([O-])c3S(=O)(=O)c3ccccc3)c(OCCCOc3no[n+]([O-])c3S(=O)(=O)c3ccccc3)cc2o1 |  |

Continued, compound first:

| Structure (SMILES) | IC50 (MDA-MB-231 [1]) [nM] | IC50 (A549) [nM] | IC50 (HCT-116) [nM] | IC50 (MCF7) [nM] | also measured |
| --- | --- | --- | --- | --- | --- |
| O=c1ccc2cc(O)c(OCCCOc3no[n+]([O-])c3S(=O)(=O)c3ccccc3)cc2o1 | 2160 | 12100 | 5970 | 11300 |  |
| O=c1ccc2cc(O)c(O)cc2o1 [ESCULETIN] | > 50000 | > 50000 | > 50000 | > 50000 | IC50 (MDA-MB-231 [7]): 7470 nM |
| O=c1ccc2cc(O)c(OCCCCOc3no[n+]([O-])c3S(=O)(=O)c3ccccc3)cc2o1 | 1990 | 11800 | 5020 | 8710 |  |
| O=c1ccc2cc(O)c(OCCCCCCOc3no[n+]([O-])c3S(=O)(=O)c3ccccc3)cc2o1 | 120 | 12500 | 2690 | 5300 | IC50 at 48 h [2]: 5730 nM; IC50 at 48 h [3]: 12600 nM; selectivity ratio [4]: 47.8; selectivity ratio [5]: 394; Activity (MDA-MB-231 [6]): Active; IC50 (MDA-MB-231 [8]): 130 nM |
| COc1cccc2c1C(=O)c1c(O)c3c(c(O)c1C2=O)C[C@@](O)(C(=O)CO)C[C@@H]3O[C@H]1C[C@H](N)[C@H](O)[C@H](C)O1 [DOXORUBICIN] |  |  | 150 | 740 | IC50 at 48 h [2]: 600 nM; IC50 at 48 h [3]: 740 nM; Activity [9]: Non-Toxic |
| O=S(=O)(c1ccccc1)c1no[n+]([O-])c1S(=O)(=O)c1ccccc1 | 7910 |  |  |  |  |
| CCN(CC)c1ccc2cc(C(=O)OCCCCCCOc3no[n+]([O-])c3S(=O)(=O)c3ccccc3)c(=O)oc2c1 |  |  |  |  | Activity (MDA-MB-231 [10]): inactive; Activity (MDA-MB-231 [11]): inactive |
| CCN(CC)c1ccc2cc(C(=O)OCCCCCCOc3cc4ccc(=O)oc4cc3OCCCCCCOc3no[n+]([O-])c3S(=O)(=O)c3ccccc3)c(=O)oc2c1 | 108 | 4430 | 9140 | 2990 |  |
| O=c1ccc2cc(O)c(OCCCCCOc3no[n+]([O-])c3S(=O)(=O)c3ccccc3)cc2o1 | 2160 | 12800 | 4280 | 7940 |  |
| CCN(CC)c1ccc2cc(C(=O)OCCCCOc3cc4ccc(=O)oc4cc3OCCCCCCOc3no[n+]([O-])c3S(=O)(=O)c3ccccc3)c(=O)oc2c1 | 53 | 1610 | 3750 | 2440 |  |
